SMILES strings stand for the structures.

Assay [1] has as its system A549 non-small cell lung carcinoma cells. The assay can be described thus: Anti-proliferative assay, cell-titre luminescent reagent, 72 h (GVK-BIO). The format is cell-based. To be noted: Homo sapiens, A549, 72 h, 30, 3, 0.3 and 0.03 μM, linear regression (Tables 2-4), read-out: IC50/μM Lung (NSLC) A549. Summed up:
(§1)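 Cells were seeded, attached over 24 h at 37 °C/5% CO2, then exposed 72 h to 30, 3, 0.3, 0.03 μM or 30, 10, 3, 1, 0.3, 0.1 μM compound, with luminescent viability reagent read after 30 min. IC50 came from linear regression of percent-of-control, or EC50 from sigmoidal variable-slope fit against vehicle.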

Assay [2] relates to CaCo2 colorectal cancer cells. The description is as above. Particulars: Homo sapiens, Caco-2, 72 h, 30, 3, 0.3 and 0.03 μM, linear regression (Tables 2-4). In kind it is cell-based. Summed up:
as §1

The subject of assay [3] is DU145 prostate cancer cells. The assay is described as above. In kind it is cell-based. To be noted: Homo sapiens, DU-145, 72 h, 30, 3, 0.3 and 0.03 μM, linear regression (Tables 2-4). The method in brief:
as §1

Assay [4] has as its system MDA-MB-231 triple negative breast cancer cells. The assay is described as above. The format is cell-based. To be noted: Homo sapiens, MDA-MB-231, 72 h, 30, 3, 0.3 and 0.03 μM, linear regression (Tables 2-4). The method in brief:
as §1

Assay [5] relates to PC3 prostate cancer cells. The assay is described as above. To be noted: 30, 3, 0.3 and 0.03 μM, linear regression (Tables 2-4). In kind it is cell-based. The method in brief: as §1
In another assay the test system is SK-Mel-28 melanoma cells. Described as above. The format is cell-based. Particulars: Homo sapiens, SK-MEL-28, 72 h, 30, 3, 0.3 and 0.03 μM, linear regression (Tables 2-4). The method in brief:
as §1

Assay [6] deals with SK-N-SH neuroblastoma cells. Described as above. In kind it is cell-based. To be noted: Homo sapiens, SK-N-SH, 30, 3, 0.3 and 0.03 μM, linear regression (Tables 2-4). Summed up:
as §1

In assay [7] the test system is glioblastoma (U251) cells. The assay can be described thus: Cell viability, CellTiter 96 AQueous, 72 hours. In kind it is cell-based. Particulars: Homo sapiens, U-251. As for the experimental part: (§2) The anti-proliferative activity of compound 4093 against ovarian cancer (SKOV3) and glioblastoma (U251) cells was also evaluated (Table 6). Briefly, cells were seeded at 2000 cells/well in a 96 well plate. 24 hrs post plating, each cell line was exposed to various concentrations of ATM-4093 (10, 5, 3,1, 0.7, 0.5, 0.3, 0.1 μM) for 72 hours. Cell viability was determined using CellTiter 96 AQueous (Promega) and absorbance measured at 490 nm on the SpectraMax M2 plate reader. Cell viability was normalized to control (vehicle alone) and dose-response curves, and half maximal effective concentration (EC50) values were determined using Graph Pad Prism 6 (nonlinear regression sigmoidal dose-response variable slope).

For assay [8], the system named is ovarian cancer (SKOV3) cells. The assay can be described thus: Cell viability, CellTiter 96 AQueous, 72 hours. In kind it is cell-based. To be noted: Homo sapiens, SK-OV-3. As for the experimental part: as §2
The next assay has as its target Tm5NM1 (Homo sapiens, UniProt P06753). In words: Pyrene-based actin filament depolymerization assay. In kind it is biochemical. To be noted: for Rate of depolymerization of Tm5NM1-containing actin filaments in the presence of compound (in words): Tm5NM1 pre-incubated with 50 μM compound, compared to F-actin alone. Here is the method: FIG. 4: Impact of compounds 4015 and 4093 on Tm5NM1-regulated actin-filament depolymerization kinetics. (A, C and E) Depolymerization time course of 6 μM actin filaments (35% pyrene labelled) diluted 12-fold into F-actin buffer (100 mM NaCl, 10 mM Tris-HCl pH 7.0, 2 mM MgCl2, 1 mM EGTA, 0.2 mM CaCl2, 0.2 mM ATP, 0.5 mM DTT, 0.01% (v/v) NaN3) in the presence or absence of saturating amounts (10 μM) of Tm5NM1. Final concentration of F-actin and Tm5NM1 was 0.5 μM and 0.83 μM respectively. Tm5NM1 was pre-incubated with 50 μM 4015, 4093 or 1% (v/v) DMSO prior to mixing with F-actin. Depolymerization data is normalized to the initial fluorescence value. (B, D and F) Initial rates (V0) of depolymerization for F-actin alone or Tm5NM1/F-actin, in the presence of compound 4015 or 4093. Initial rates of depolymerization were determined from the first 3600 s, fitted to a linear regression model. Data represents mean ±SEM, averaged from n>8 replicates. **** p<0.0001, ** p<0.005.
A brief overview and rationale of the assay is as follows: to promote depolymerization, pyrene-labelled actin filaments were diluted below the critical concentration of the pointed end (0.5 μM, as defined by Pollard et al., 1986). A decline in fluorescence was measured over time as actin monomers dissociate. […] Therefore, any compound, which interacts with, and impacts Tm5NM1 function, would nullify the protective effect of Tm5NM1 on actin depolymerization.
For all assays the depolymerization of F-actin alone and F-actin-coated with the human homologue of Tm5NM1 was used as a comparative control. Briefly, Tm5NM1 was pre-incubated with F-actin for 20 minutes prior to diluting the filaments, to allow for proper assembly of the Tm5NM1 polymer.
The depolymerization of F-actin alone and F-actin-coated with Tm5NM1 was then measured in the presence of test compound and initial rates of depolymerization were compared. Tm5NM1 was pre-incubated with 50 μM 4015 and 4093 prior to being added to the actin filaments as previously described. In the presence of compound 4015, the rate of depolymerization of Tm5NM1-containing actin filaments was increased.

Sequence of Tm5NM1 (P06753 1-248 isoform P06753-2): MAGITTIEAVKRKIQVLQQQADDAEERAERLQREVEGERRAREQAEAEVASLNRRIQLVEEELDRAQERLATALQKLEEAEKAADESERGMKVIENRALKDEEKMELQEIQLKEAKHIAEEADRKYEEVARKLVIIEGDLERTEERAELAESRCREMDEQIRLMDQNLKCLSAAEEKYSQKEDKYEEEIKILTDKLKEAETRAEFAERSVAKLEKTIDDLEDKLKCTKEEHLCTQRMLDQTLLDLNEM

As to `Cc1c(C)n(CCCN(C)C)c2ccc(Oc3ccc(C(=O)Nc4ccc(F)cc4)cc3)cc12` [Compound 4093, 4-((1-(3-(dimethylamino)propyl)-2,3-dimethyl-1H-indol-5-yl)oxy)-N-(4-fluorophenyl)benzamide], the IC50 stood at 3 µM in [1]; 1.8 µM in [2]; 1.7 µM in assay [3]; 2.1 µM in [4]; 1.2 µM in assay [5]; 0.9 µM in the assay on SK-Mel-28 melanoma cells. For the same compound, the IC50 amounted to 2.5 µM in assay [6], 0.5 µM in assay [7] and 0.6 µM in assay [8]. In addition, the “Initial rate (V0) of depolymerization, F-actin alone” value at Tm5NM1 (50 μM compound, FIG. 4E and F) is recorded as −0.30±0.029×10^−4. Moreover, at Tm5NM1 (50 μM compound, FIG. 4E and F), the “Initial rate (V0) of depolymerization, Tm5NM1-containing actin” value is −0.26±0.028×10^−4. Further, at Tm5NM1, the “Rate of depolymerization of Tm5NM1-containing actin filaments in the presence of compound (in words)” value is on record as “no significant difference”.
Consider `Cc1c(C)n(CCCN(C)C)c2ccc(CN3CCN(CCc4ccccc4)CC3)cc12` [Compound 4015, 3-(2,3-dimethyl-5-((4-phenethylpiperazin-1-yl)methyl)-1H-indol-1-yl)-N,N-dimethylpropan-1-amine], for which the IC50 in [1] was 1.8 µM; in [2], 2.9 µM; in assay [3], 3.7 µM; in [4], 3 µM; in [5], 2.9 µM; in the assay with SK-Mel-28 melanoma cells, 3.9 µM. The IC50 in assay [6] was 4.6 µM. Besides, the “Rate of depolymerization of Tm5NM1-containing actin filaments in the presence of compound (in words)” value on Tm5NM1 is listed as “increased”.

Values taken from patent US20170166555A1, “FUNCTIONALISED AND SUBSTITUTED INDOLES AS ANTI-CANCER AGENTS” (Novogen Limited, priority 2013, published 2017).
